Results reported in the supplement of paper PMC10307832.

Columns and labels:
Test in all cases: relative viability (nuclei count vs DMSO), 5 days (fraction); higher = more cells survive
[1] = compound: O=C(CCCCCCNC(=O)c1cnc(N(c2ccccc2)c2ccccc2)nc1)NO [Ricolinostat] + N=C(N)NC(=N)NCCc1ccccc1 [Phenformin] (partner 250 µM)
Outline: (§1)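 Lung cancer cell lines were seeded in 1536-well plates and dosed by pin tool the next day, with either a single drug or a fixed anchor-drug dose combined with five library-drug doses (not always all listed) spaced in √10 steps. Five days later, one step fixed the cells and stained their nuclei (final 0.05% Triton X-100, 1% formaldehyde, 1 ug/ml Hoechst), and nuclei were counted on 4× images. Relative viability is the nuclei count in treated wells divided by the count in vehicle wells, and each value is the median of duplicate plates.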

TGX 221 + Dasatinib = compound: CC1=CN2C(=O)C=C(N=C2C(=C1)C(C)NC3=CC=CC=C3)N4CCOCC4 [TGX 221] + Cc1nc(Nc2ncc(C(=O)Nc3c(C)cccc3Cl)s2)cc(N2CCN(CCO)CC2)n1 [Dasatinib] (partner 0.075 µM)
Outline: as §1

Ricolinostat + Lapatinib = compound: O=C(CCCCCCNC(=O)c1cnc(N(c2ccccc2)c2ccccc2)nc1)NO [Ricolinostat] + CS(=O)(=O)CCNCc1ccc(-c2ccc3ncnc(Nc4ccc(OCc5cccc(F)c5)c(Cl)c4)c3c2)o1 [Lapatinib] (partner 2 µM)
Outline: as §1

[2] = compound: C1=CC=C(C(=C1)C2=CC=C(C=C2)C3=CSC4=C3C(=C(C(=O)N4)C#N)O)O + Cc1nc(Nc2ncc(C(=O)Nc3c(C)cccc3Cl)s2)cc(N2CCN(CCO)CC2)n1 [Dasatinib] (partner 0.075 µM)
Outline: as §1

Cell Line	relative viability ([1]; first compound 0.08 µM)	relative viability ([1]; first compound 0.253 µM)	relative viability ([1]; first compound 0.8 µM)	relative viability ([1]; first compound 2.53 µM)	relative viability (TGX 221 + Dasatinib; first compound 0.08 µM)	relative viability (TGX 221 + Dasatinib; first compound 0.253 µM)	relative viability (TGX 221 + Dasatinib; first compound 0.8 µM)	relative viability (TGX 221 + Dasatinib; first compound 2.53 µM)	relative viability (TGX 221 + Dasatinib; first compound 8 µM)	relative viability (Ricolinostat + Lapatinib; first compound 0.08 µM)	relative viability (Ricolinostat + Lapatinib; first compound 0.253 µM)	relative viability (Ricolinostat + Lapatinib; first compound 0.8 µM)	relative viability (Ricolinostat + Lapatinib; first compound 2.53 µM)	relative viability ([2]; first compound 0.08 µM)	relative viability ([2]; first compound 0.253 µM)	relative viability ([2]; first compound 0.8 µM)	relative viability ([2]; first compound 2.53 µM)	relative viability ([2]; first compound 8 µM)
RERF-LC-KJ	0.452	0.372	0.406	0.374	0.692	0.795	0.811	0.764	0.744	0.828	0.864	0.858	0.808	0.765	0.889	0.854	0.771	0.657
NCI-H520		0.732	0.578	0.498	0.215	0.202	0.156	0.16	0.159		0.745	0.851	0.786	0.193	0.179	0.258	0.202	0.212
NCI-H2085		0.705	0.66	0.58	0.228	0.195	0.208	0.191	0.187		0.679	0.715	0.573	0.22	0.264	0.238	0.224	0.258
PC-14	0.364	0.532	0.477	0.37	0.246	0.22	0.3	0.272	0.221	0.243	0.291	0.263	0.172	0.244	0.261	0.272	0.27	0.239
HCC-366	0.509	0.606	0.619	0.432	0.693	0.606	0.639	0.586	0.55	1.02	1.02	0.918	0.363	0.505	0.844	0.64	0.737	0.353
NCI-H2126		0.533	0.521	0.499	0.512	0.61	0.615	0.578	0.585	0.615	0.751	0.719	0.801	0.588	0.573	0.604	0.45	0.568
NCI-H2023		0.403	0.382	0.344	0.481	0.481	0.592	0.537	0.407	0.552	0.91	0.792	0.487	0.444	0.521	0.648	0.55	0.433
SK-LU-1	0.449	0.666	0.565	0.395	0.203	0.181	0.165	0.129	0.128	0.75	0.782	0.854	0.653	0.172	0.198	0.161	0.198	0.196
NCI-H2347	0.295	0.32	0.337	0.302	0.242	0.318	0.313	0.244	0.269	0.849	0.908	0.874	0.82	0.331	0.276	0.28	0.284	0.314
HCC-15	0.411	0.509	0.486	0.496	0.595	0.575	0.657	0.564	0.608	0.729	0.808	0.854	0.899	0.522	0.627	0.601	0.673	0.61
NCI-H1355	0.412	0.451	0.427	0.439	0.688	0.688	0.721	0.688	0.632		1.01	1	0.863	0.619	0.668	0.708	0.64	0.639
NCI-H2405	0.356	0.44	0.416	0.358	0.235	0.206	0.22	0.205	0.179	0.858	1.04	1.08	1.04	0.206	0.206	0.214	0.201	0.201
EKVX	0.201	0.251		0.222	0.399	0.523	0.432	0.493	0.365		0.205	0.205	0.19	0.47	0.724	0.671	0.621	0.403
NCI-H1993		0.48	0.508	0.339	0.504	0.634	0.557	0.541	0.572	0.714	0.867	0.796	0.91	0.619	0.701	0.596	0.544	0.549
HOP-62	0.586	0.657	0.623	0.503	0.668	0.566	0.635	0.533	0.534	0.935	0.88	0.923	0.843	0.528	0.573	0.685	0.67	0.501
SK-MES-1	0.597	0.599	0.678	0.672	0.315	0.275	0.305	0.223	0.162	0.403	0.466	0.439	0.456	0.391	0.334	0.309	0.274	0.359
ABC-1	0.27	0.24	0.253	0.274	0.531	0.569	0.682	0.472	0.577	1.27	1.12	1.3	1.65	0.526	0.65	0.559	0.542	0.432
NCI-H1755	0.45	0.6	0.608	0.604	0.406	0.371	0.366	0.317	0.317	0.812		1.02	1.01	0.396	0.466	0.349	0.368	0.423
NCI-H838	0.48	0.689	0.64	0.571	0.305	0.258	0.273	0.234	0.223	0.683	1.08	0.955	0.873	0.251	0.295	0.317	0.267	0.269
NCI-H322M		0.839	0.767	0.761	0.231	0.242	0.244	0.247	0.224		0.494	0.624	0.66	0.245	0.244	0.234	0.243	0.273
EMC-BAC-2	0.475	0.481	0.476	0.396	0.279	0.306	0.321	0.315	0.351	0.784	0.895	0.894	0.676	0.35	0.332	0.306	0.283	0.316
HARA	0.411	0.452	0.427	0.124	0.207	0.254	0.289	0.26	0.315	0.503	0.676	0.659	0.411	0.241	0.228	0.346	0.292	0.192
NCI-H727	0.342	0.734	0.529	0.572	0.287	0.436	0.412	0.409	0.439	0.523	1.02	0.862	0.77	0.507	0.415	0.483	0.285	0.419
NCI-H1944	0.181	0.18	0.174	0.151	0.225	0.202	0.228	0.206	0.181	0.638	0.85	0.819	0.854	0.224	0.248	0.219	0.178	0.215
COR-L 105		0.562	0.458	0.471	0.286	0.252	0.264	0.406	0.23	0.342	0.396	0.399	0.384	0.337	0.301	0.272	0.302	0.309
201T	0.41	0.449	0.452	0.467	0.596	0.584	0.54	0.508	0.541	0.921	1.01	0.95	1.07	0.564	0.597	0.521	0.516	0.654
NCI-H460	0.389	0.512	0.494	0.476	0.478	0.477	0.526	0.539	0.432	0.844	0.91	1.02	0.764	0.37	0.406	0.485	0.577	0.506
LOU-NH91	0.516	0.726	0.713	0.744	0.561	0.541	0.535	0.571	0.529		0.872	0.778	0.78	0.493	0.589	0.506	0.542	0.489
NCI-H2170	0.394	0.426	0.407	0.373	0.542	0.48	0.527	0.519	0.507	0.23	0.277	0.28	0.264	0.486	0.514	0.662	0.635	0.691
LU99A	0.738	0.705	0.716	0.597	0.507	0.507	0.509	0.556	0.593	0.833	0.853	0.846	0.541	0.528	0.608	0.61	0.563	0.442
